Measured values: ChEMBL document CHEMBL1134144, “Macrocyclization in the design of a conformationally constrained Grb2 SH2 domain inhibitor” (Bioorg Med Chem Lett, 2001)

Target: Growth factor receptor-bound protein 2 (Homo sapiens, UniProt P62993)
Test: Inhibition of Growth factor receptor bound protein 2 SH2 domain binding in ELISA

Growth factor receptor-bound protein 2, sequence (P62993 whole entry, the tested form may be a part): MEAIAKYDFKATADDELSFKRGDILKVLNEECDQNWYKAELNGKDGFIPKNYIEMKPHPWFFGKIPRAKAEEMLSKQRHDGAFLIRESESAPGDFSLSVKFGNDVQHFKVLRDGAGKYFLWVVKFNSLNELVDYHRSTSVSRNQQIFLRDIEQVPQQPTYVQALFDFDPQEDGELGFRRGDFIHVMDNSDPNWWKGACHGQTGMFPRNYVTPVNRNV

First: NC(=O)C[C@H](NC(=O)C1(NC(=O)[C@H](Cc2ccc(CP(=O)(O)O)cc2)NC(=O)C(=O)O)CCCCC1)C(=O)NCCCc1cccc2ccccc12
Second: CC(=O)N[C@@H](Cc1ccc(CP(=O)(O)O)cc1)C(=O)NC1(C(=O)N[C@@H](CC(N)=O)C(=O)NCCCc2cccc3ccccc23)CCCCC1
The IC50 of the first is 2.8-fold lower: 20 nM for the first, 55 nM for the second. The first is the more potent here.

Going from NC(=O)C[C@H](NC(=O)C1(NC(=O)CCc2ccc(CP(=O)(O)O)cc2)CCCCC1)C(=O)NCCCc1cccc2ccccc12 to NC(=O)C[C@@H]1NC(=O)C2(CCCCC2)NC(=O)C[C@@H](c2ccc(CP(=O)(O)O)cc2)/C=C/C[C@@H](Cc2cccc3ccccc23)CNC1=O, the IC50 falls from 2000 nM to 20 nM (100-fold).
